Values quoted from earlier work as cited in publication PMC9076486 (RSC Advances, 2019).
pIC50: −log10 of the molar value.

Test system: superoxide anions
Settings: pH 7.4; for pIC50: read-out: IC50 (SOD activity)

Molecule	k cat (SOD activity)	pIC50
[Cu+2].[O-][Cl+3]([O-])([O-])[O-].[O-][Cl+3]([O-])([O-])[O-] [Cu(ClO4)2, copper(II) perchlorate]	2.7 10^6 M^−1 s^−1	5.96
CuZn–SOD: native copper–zinc superoxide dismutase enzyme, value from ref. 42	430 10^6 M^−1 s^−1	8.00
